Data from article PMC3559867, “Metabolites of Ginger Component [6]-Shogaol Remain Bioactive in Cancer Cells and Have Low Toxicity in Normal Cells: Chemical Synthesis and Biological Evaluation” (PLoS ONE, 2013).

Assays:
[1] = tested on: IMR-90 human normal lung cells; experiment: MTT cytotoxicity, normal lung cells IMR-90; format: cell-based; conditions: 24 h treatment, toxicity to normal cells
Method: (§1) Cell growth inhibition was determined by a MTT colorimetric assay. Human colon cancer cells HCT-116, human lung cancer cells H-1299, human colon fibroblast cells CCD-18Co, and human lung fibroblast cells IMR-90 were plated in 96-well microtiter plates with 3000 cells/well and allowed to attach for 24 h at 37°C. […] After the cells were cultured for 24 h, the medium was aspirated and cells were treated with 200 µL fresh medium containing 2.41 mmol/L MTT. […] The reading reflected the number of viable cells and was expressed as a percentage of viable cells in the control. Both HCT-116 and H-1299 cells were cultured in McCoy’s 5A medium. CCD-18Co and IMR-90 cells were cultured in Eagle’s modified essential medium (EMEM). All of the above media were supplemented with 10% fetal bovine serum, 1% penicillin/streptomycin, and 1% glutamine, and the cells were kept in a 37°C incubator with 95% humidity and 5% CO2.

[2] = tested on: H-1299 human lung cancer cells; experiment: MTT growth inhibition, H-1299; format: cell-based; conditions: 24 h treatment, 0 to 80 µM
Method: as §1

[3] = tested on: CCD-18Co human normal fibroblast colon cells; experiment: MTT cytotoxicity, normal colon cells CCD-18Co; format: cell-based; conditions: 24 h treatment, toxicity to normal cells
Method: as §1

[4] = tested on: HCT-116 human colon cancer cells; experiment: MTT growth inhibition, HCT-116; format: cell-based; conditions: 24 h treatment, 0 to 80 µM
Method: as §1

HCT-116 cells = experiment: TUNEL apoptosis assay, HCT-116; format: cell-based, human; conditions: 20 or 40 µM, versus DMSO
Method: (§2) HCT-116 and H1299 cells were seeded in 6-well plates at 1.10^5 cells/well and incubated at 37°C in 5% CO2 incubator. After 24 hours, fresh media supplemented with DMSO (control), [6]-shogaol, M2, M6, or M13 metabolites (20 µM or 40 µM) were added to the wells. After 6 or 24 hours incubation at 37°C in 5% CO2 incubator, cells were washed and pre-treated for 15 min at room temperature with a solution of 20 µg/ml proteinase K. Cells were then washed twice with phosphate buffer saline pH 7.4 (PBS) and fixed for 10 min at room temperature using 10% neutral formaldehyde solution. After 2 washes in ddH2O, cells were resuspended in 100 µL ddH2O and applied on silanized microscope slides. Slides were incubated overnight at 37°C, and washed twice with PBS. TUNEL assay was then carried out according to the manufacturer’s protocol. Cells were observed under 400X power using a Zeiss microscope A1 (Thornwood, NY). 10 fields per slide were evaluated, and TUNEL+ cells (with brown coloration in the nucleus) were expressed as a percentage of the total number of cells contained in a field.

H-1299 cells = experiment: TUNEL apoptosis assay, H-1299; format: cell-based, human; conditions: H-1299, 24 hours of incubation, 20 or 40 µM, versus DMSO; M2 not significant at 20 µM
Method: as §2

[5] = HCT-116, 24 hours of incubation

`CCCCCC(CC(O)CCc1ccc(O)c(OC)c1)SCC(N)C(=O)O` (stereo not drawn) [M1, 5-cysteinyl-M6] showed an IC50 [1] of over 100 µM, an IC50 ([2]; Homo sapiens, NCI-H1299, 24 h) of over 100 µM and an IC50 [3] of over 100 µM. For the same compound, the IC50 [4] was over 100 µM.
`CCCCCC(CC(=O)CCc1ccc(O)c(OC)c1)SCC(N)C(=O)O` (stereo not drawn) [M2, 5-cysteinyl-[6]-shogaol] was tested, and the IC50 [1] was 98.3 µM, the IC50 [2] was 24.4 µM and the IC50 ([2]; Homo sapiens, NCI-H1299, 24 h) was 25.8 µM. The “induction of apoptosis (TUNEL positive cells)” value (“induction of apoptosis” below) (HCT-116 cells; HCT-116, 6 hours of incubation) was “significantly higher levels of apoptosis”, the “induction of apoptosis” value (HCT-116 cells; [5]) was “Significant apoptosis” and the IC50 [3] was 99.2 µM. For the same compound, the “induction of apoptosis” value (H-1299 cells) was “Significant apoptosis” and the IC50 [4] was 24.4 µM.
Compound `CCCCCC(CC(O)CCc1ccc(O)c(OC)c1)SCC(NC(C)=O)C(=O)O` (stereo not drawn) [M4, 5-N-acetylcysteinyl-M6] has an IC50 [1] of over 100 µM, an IC50 ([2]; Homo sapiens, NCI-H1299, 24 h) of over 100 µM and an IC50 [3] of over 100 µM. For the same compound, the IC50 [4] was over 100 µM.
`CCCCCC(CC(=O)CCc1ccc(O)c(OC)c1)SC[C@H](NC(C)=O)C(=O)O` (stereo partly drawn) [M5, 5-N-acetylcysteinyl-[6]-shogaol] showed an IC50 [1] of over 100 µM, an IC50 [2] of 54.3 µM and an IC50 ([2]; Homo sapiens, NCI-H1299, 24 h) of 72.6 µM. It also gave an IC50 [3] of over 100 µM and an IC50 [4] of 54.3 µM.
`CCCCCC=CC(O)CCc1ccc(O)c(OC)c1` (stereo not drawn) [M6, 1-(4'-hydroxy-3'-methoxyphenyl)-4-decen-3-ol] gave an IC50 [1] of over 100 µM, an IC50 [2] of 68.8 µM and an IC50 ([2]; Homo sapiens, NCI-H1299, 24 h) of 61.3 µM. The “induction of apoptosis” value (HCT-116 cells; [5]) was “did not display any apoptotic effect”, the IC50 [3] was over 100 µM and the “induction of apoptosis” value (H-1299 cells) was “did not display any apoptotic effect”. For the same compound, the IC50 [4] was 68.8 µM.
With `CCCCCC(CC(=O)CCc1ccc(O)c(OC)c1)OC` (stereo not drawn) [M7, 5-methoxy-1-(4'-hydroxy-3'-methoxyphenyl)-decan-3-one] the IC50 [1] was over 100 µM, the IC50 ([2]; Homo sapiens, NCI-H1299, 24 h) was over 100 µM and the IC50 [3] was over 100 µM. It also gave an IC50 [4] of over 100 µM.
`CCCCCCCC(=O)CCc1ccc(O)c(O)c1` [M8, 1-(3',4'-dihydroxyphenyl)-decan-3-one] gave an IC50 [1] of over 100 µM, an IC50 ([2]; Homo sapiens, NCI-H1299, 24 h) of over 100 µM and an IC50 [3] of over 100 µM. The IC50 [4] was 58.8 µM.
For `CCCCCCCC(O)CCc1ccc(O)c(OC)c1` (stereo not drawn) [M9, 1-(4'-hydroxy-3'-methoxyphenyl)-decan-3-ol], the IC50 [1] was over 100 µM, the IC50 ([2]; Homo sapiens, NCI-H1299, 24 h) was 82.5 µM and the IC50 [3] was over 100 µM. It also gave an IC50 [4] of 82.2 µM.
`CCCCCC(CC(=O)CCc1ccc(O)c(OC)c1)SC` (stereo not drawn) [M10, 5-methylthio-1-(4'-hydroxy-3'-methoxyphenyl)-decan-3-one] gave an IC50 [1] of over 100 µM, an IC50 ([2]; Homo sapiens, NCI-H1299, 24 h) of 60.6 µM and an IC50 [3] of over 100 µM. For the same compound, the IC50 [4] was 78.2 µM.
Work on `CCCCCCCC(=O)CCc1ccc(O)c(OC)c1` [M11, 1-(4'-hydroxy-3'-methoxyphenyl)-decan-3-one] yielded an IC50 [1] of over 100 µM, an IC50 ([2]; Homo sapiens, NCI-H1299, 24 h) of 66.5 µM and an IC50 [3] of over 100 µM. It also gave an IC50 [4] of 84 µM.
In the case of `CCCCCC(CC(O)CCc1ccc(O)c(OC)c1)SC` (stereo not drawn) [M12, 5-methylthio-1-(4'-Hydroxy-3'-methoxyphenyl)-decan-3-ol], the IC50 [1] is reported as over 100 µM, the IC50 ([2]; Homo sapiens, NCI-H1299, 24 h) is reported as 69.9 µM and the IC50 [3] is reported as over 100 µM. For the same compound, the IC50 [4] was over 100 µM.
With `CCCCCC(CC(=O)CCc1ccc(O)c(OC)c1)SCC(NC(=O)CCC(N)C(=O)O)C(=O)NCC(=O)O` (stereo not drawn) [M13, 5-glutathiol-[6]-shogaol] the IC50 [1] was 57.5 µM, the IC50 ([2]; Homo sapiens, NCI-H1299, 24 h) was 47.8 µM and the “induction of apoptosis” value (HCT-116 cells; HCT-116, 6 hours of incubation) was “significantly higher levels of apoptosis”. The “induction of apoptosis” value (HCT-116 cells; [5]) was “Significant apoptosis”, the IC50 [3] was 75.5 µM and the “induction of apoptosis” value (H-1299 cells) was “Significant apoptosis”. It also gave an IC50 [4] of 45.5 µM.
For `CCCCC[C@@H](CC(=O)CCc1ccc(O)c(OC)c1)SC[C@H](NC(=O)CC[C@H](N)C(=O)O)C(=O)NCC(=O)O` [M13-1], the IC50 ([2]; Homo sapiens, NCI-H1299, 24 h) was 74.4 µM, the “induction of apoptosis” value (HCT-116 cells; HCT-116, 6 hours of incubation) was “higher level of apoptosis” and the IC50 [4] was 71.2 µM.
For `CCCCC[C@H](CC(=O)CCc1ccc(O)c(OC)c1)SC[C@H](NC(=O)CC[C@H](N)C(=O)O)C(=O)NCC(=O)O` [M13-2], the IC50 ([2]; Homo sapiens, NCI-H1299, 24 h) was 63.8 µM, the “induction of apoptosis” value (HCT-116 cells; HCT-116, 6 hours of incubation) was “higher level of apoptosis” and the IC50 [4] was 54.9 µM.
In the case of `CCCCC/C=C/C(=O)CCc1ccc(O)c(OC)c1` [[6]-shogaol], the IC50 [1] is reported as 36.6 µM, the IC50 ([2]; Homo sapiens, NCI-H1299, 24 h) is reported as 17.9 µM and the “induction of apoptosis” value (HCT-116 cells; HCT-116, 6 hours of incubation) is reported as “significantly higher levels of apoptosis”. The “induction of apoptosis” value (HCT-116 cells; [5]) was “significantly superior to that of both M2 and M13”, the IC50 [3] was 43.9 µM and the “induction of apoptosis” value (H-1299 cells) was “significantly superior to that of both M2 and M13”. It also gave an IC50 [4] of 18.2 µM.
